First: Cc1cc(OC2CCN(C(=O)OC(C)(C)C)CC2)ccc1[N+](=O)[O-]
Second: O=C(CNc1ccc2[nH]c(=O)[nH]c2c1)N1CCC(Oc2ccc(Cl)cc2)CC1
The melting point of the first is lower: 104 to 106 °C for the first, 201 to 205 °C for the second.

First: N=C1SCCN1c1ccccc1[N+](=O)[O-]
Second: CC(C)(Nc1c(Cl)cccc1[N+](=O)[O-])C(=O)O
The melting point of the first is higher: 127 °C for the first, 107 to 109 °C for the second.

`CCCCc1nn(-c2cc([N+](=O)[O-])ccc2Cl)c(=O)n1Cc1ccc(-c2ccccc2S(=O)(=O)NC(C)(C)C)cc1` and `COc1cc(C(=O)NS(=O)(=O)c2ccccc2Cl)ccc1Cn1cc(CCC(=O)N(C)C)c2ccc(CCC(=O)N(C)C)cc21` cannot be ordered by melting point: greater than 75 °C for the first, 134 to 137 °C for the second.

First: O=C(CCl)OCCCCOC(=O)CCl
Second: CCOC(=O)CCCN1CCn2nc(C(=O)O)cc2C1=O
The melting point of the first is lower: 74 to 76.5 °C for the first, 175 °C for the second.

First: COc1ccc2c(c1)C(C)CC1C2CCC2(C)C(=O)CCC12 (centres undefined)
Second: COc1cccc2c1CCN([C@@H]1CN3CCC1CC3)C2=O
The melting point of the first is lower: 108 to 109 °C for the first, greater than 290 °C for the second.

Compared with `COc1ccc([C@H](O)[C@@H](Cc2ccc(C(F)(F)F)cc2)C(=O)O)cc1` (racemic), `O=C(COc1ccc(CCC(=O)C(F)(F)F)cc1)NC(c1ccc(Cl)cc1)c1ccc(Cl)cc1` is higher in melting point: 113 to 114 °C for the first, 145 to 146 °C for the second.

First: O=C(O)CP(=O)(O)C(CCCc1ccccc1)NC(=O)c1ccccc1 (centres undefined)
Second: COC(=O)Cc1ccc(CNC(=O)[C@@H](CCCNC(N)=N[N+](=O)[O-])NC(=O)C(c2ccccc2)c2ccccc2)cc1
The melting point of the first is higher: 170 to 175 °C for the first, 158 to 160 °C for the second.

First: COC(=O)c1cc2cc(C(=O)c3ccc(F)cc3)sc2s1
Second: CCOC(=O)c1c(-c2ccc(F)cc2)c2ccccc2n1C
The melting point of the first is higher: 220 °C for the first, 61 to 62 °C for the second.

Compared with `CC(C)(Cc1ccc(F)cc1)NC(=O)c1coc(C2C3CCC(O3)C2Cc2ccccc2CCC(=O)O)n1` (centres undefined), `COc1ccccc1C(=O)NCC(=O)N1c2ccccc2N(Cc2ccccc2)C(=O)C2CCCC21` (centres undefined) is higher in melting point: 68 °C for the first, 187 to 188 °C for the second.

First: Cc1cccnc1C(CO)COc1ccc([N+](=O)[O-])cc1 (centres undefined)
Second: O=C1OC(Cl)(C(=O)OCc2ccc([N+](=O)[O-])cc2)c2ccccc21 (centres undefined)
The melting point of the first is higher: 135 to 136 °C for the first, 132 to 134 °C for the second.

First: CC(=O)OCCN1C(=O)C(NC(=O)Nc2cccc(-c3nnn[nH]3)c2)N=C(C2CCCCC2)c2cccc(C)c21 (centres undefined)
Second: CCC1CCCCN1CCC(=O)Nc1ccc2c(=O)c3ccc(NC(=O)CCN4CCCCC4CC)cc3[nH]c2c1 (centres undefined)
The melting point of the first is lower: 165 to 168 °C for the first, greater than 320 °C for the second.

First: COc1ccc(NS(=O)(=O)c2ccc(N3CCC(NC[C@H](O)COc4cccc5[nH]c6ccccc6c45)CC3)cc2)cc1OC
Second: Cc1cc2c(=O)c(N3CCC(O)(c4ccc(F)cc4)CC3)coc2cc1OCc1ccccc1
The melting point of the first is lower: 58 to 64 °C for the first, 245 to 246 °C for the second.

Compared with `CCOCc1nc2c(c(C)c(C)n3nnnc23)n1CCNC(=O)C(C)C`, `CCOC(=O)c1c(C)nc2c(cnn2CC)c1O` is lower in melting point: 179 to 181 °C for the first, 118 to 120 °C for the second.

First: COc1nc(I)cc(C(O)Cc2ccccc2)c1C (centres undefined)
Second: COc1cccc(C(O)c2cccnc2Cl)c1 (centres undefined)
The melting point of the first is lower: 69 to 70 °C for the first, 114 to 115 °C for the second.

First: NCc1cc(CN)cc(CN)c1
Second: NCCC(C(N)=O)c1ccc(O)cc1 (centres undefined)
The melting point of the first is lower: 49 to 51 °C for the first, 168 to 170 °C for the second.

Compared with `COCc1c(C(=O)OC(C)C)ncc2[nH]c3cccc(Oc4ccccn4)c3c12`, `COC(=O)C=Cc1ccc(OC)c(OCc2nc(-c3ccccc3)oc2C)c1` is lower in melting point: 188 to 189 °C for the first, 135 to 136 °C for the second.

First: COc1cc(N)c2nccc(C)c2c1Oc1cccc(C(F)(F)F)c1
Second: NS(=O)(=O)Oc1cccc(C(F)(F)F)c1
The melting point of the first is higher: 113 to 115 °C for the first, 100 to 102 °C for the second.

First: O=C(O)c1cccc(CN2C(=O)C3(COc4cc5c(cc43)OCCO5)c3ccccc32)c1 (centres undefined)
Second: COc1cc(-c2cc(O)c(SCc3ccccc3)c(=O)o2)cc(OC)c1OC
The melting point of the first is higher: 254 to 258 °C for the first, 156 to 157 °C for the second.

First: C[C@H]1CCCN(C(=O)Cc2ccc(Cl)c(Cl)c2)[C@H]1C=O (relative stereo)
Second: CCOC(=O)C=Cc1cccc(Cl)c1Cl
The melting point of the first is higher: 97 to 98 °C for the first, 69 to 70 °C for the second.

Compared with `COc1cc2c(cc1[N+](=O)[O-])-c1c(-c3cccs3)c3c(n1CC2)C(=O)N(C(C)(C)C)CCC3`, `COc1cc(-n2cc(C(=O)O)c(=O)c3cc(F)c(F)c(Cl)c32)ccc1F` is higher in melting point: 279 to 280 °C for the first, greater than 280 °C for the second.

First: O=C1C2C3C=CC(C3)C2C(=O)N1OS(=O)(=O)CCSC1CCCCC1 (centres undefined)
Second: CC(=O)c1c(C)c2cnc(Nc3ccc(N4CCNCC4)nc3)nc2n(C2CCCC2)c1=O
The melting point of the first is lower: 96 to 98 °C for the first, 125 °C for the second.

Compared with `O=C1c2ccccc2C(=O)N1CC(O)Cn1ccnc1[N+](=O)[O-]` (centres undefined), `Cc1c(CC(=O)O)c2ccccc2c(=O)n1O` is lower in melting point: 213 to 214 °C for the first, 198 to 200 °C for the second.

First: CN(C)C1(c2ccccc2)CCC2(OCCc3c2[nH]c2ccc(F)cc32)C(F)C1 (centres undefined)
Second: CN1CCC(OC(c2ccccc2)c2nc3cccc(N)c3[nH]2)CC1 (centres undefined)
The melting point of the first is higher: 237 to 242 °C for the first, 96.7 °C for the second.

First: CC(C)C=C1CCC2(C1)C(=O)C=C(OC(C)C)CC2C (centres undefined)
Second: COc1ccc2c(c1)C(CCCCNC(C)=O)=CCC2
The melting point of the first is higher: 88 to 91 °C for the first, 79 to 81 °C for the second.

Compared with `O=[N+]([O-])c1cc(F)c(O)c(F)c1`, `O=[N+]([O-])c1cc(Cl)c(CCl)c(Cl)c1` is lower in melting point: 98.4 to 101 °C for the first, 37 to 39 °C for the second.

Compared with `COc1cc2c(cc1OC)CN(CC(O)c1ccc(N)cc1)CC2` (centres undefined), `COc1cc(N)c(C(N)=O)c(OC)c1` is lower in melting point: 168 °C for the first, 117 to 119 °C for the second.

Compared with `CCS(=O)(=O)N(C)C1CC(C)(C)Oc2ccc(O)cc21` (centres undefined), `C#CCOc1ccc(COC(C)=O)cc1OC` is lower in melting point: 160 to 162 °C for the first, 69 to 71 °C for the second.

First: Cc1c(C(=O)c2cccnc2)sc2cc(Br)ccc12
Second: Cc1c2n(c3ccccc13)C(=O)C(C(O)c1ncc[nH]1)CC2 (centres undefined)
The melting point of the first is lower: 110 to 111 °C for the first, 199 to 200 °C for the second.

First: CC(C)Oc1cc(CCCOc2ccc3ccccc3c2CC(=O)O)n(Cc2ccc(Cl)cc2Cl)n1
Second: CCOc1nn(Cc2ccnc(OCc3cn4c(Cl)cccc4n3)c2)cc1CCC(=O)O
The melting point of the first is lower: 120 to 122 °C for the first, 160 to 161 °C for the second.

Compared with `CCCCCCCCCCCCOC(=O)NS(=O)(=O)Nc1c(OC)cc(OC)cc1OC`, `CCCCCCCCCCCCC#CC(F)(CCCCC(=O)O)CCCCC(=O)O` is lower in melting point: 133 to 136 °C for the first, 98 to 100 °C for the second.

Compared with `COc1ccc(CNc2nc(N)nc3c2ncn3C2CC(F)C(CO)O2)cc1` (centres undefined), `COC(=O)c1cc2ccc(SCc3ccc(OC)cc3)cc2nc1OC` is lower in melting point: 194 to 195 °C for the first, 133 to 134 °C for the second.

First: Cc1ccc(N2N=C(C(N)=O)NC2c2c(F)cccc2F)cc1COCC(F)(F)C(F)(F)F (centres undefined)
Second: CS(=O)(=O)c1ccc(-c2cc(C(F)(F)F)nn2-c2ccc(O)cc2)cc1
The melting point of the first is lower: 182 to 185 °C for the first, 243 to 244 °C for the second.

`Oc1cccc2c(Cl)ncnc12` and `O=C1Nc2c(Cl)cc(Cl)c3cccc1c23` cannot be ordered by melting point: greater than 252 °C for the first, 265 °C for the second.

Compared with `C=C(C)C#Cc1ccc2c(c1)NC(=O)CC(c1cccc(C#N)c1)=N2`, `N#CC1=C(c2ccccc2)Nc2n[nH]cc2C1c1cccc(Cl)c1Cl` (centres undefined) is lower in melting point: 231 °C for the first, 162 °C for the second.

Compared with `CCOC(=O)NN=Cc1cc(-n2c(=O)cc(C(F)(F)F)n(C)c2=O)ccc1Cl`, `Cc1cc(-c2sc(N3CCN(Cc4cccc(C(F)(F)F)c4)C3=O)nc2C)n[nH]1` is higher in melting point: 111 to 116 °C for the first, 163 to 164 °C for the second.

First: O=C(O)C(=O)N1CCC(Cc2ccccc2)CC1
Second: COC(=O)C1CN(C(=O)[C@H](CO)NC(=O)OCc2ccccc2)C1
The melting point of the first is higher: 109 to 112 °C for the first, 90 to 95 °C for the second.

Compared with `CS(=O)(=O)Nn1c(=O)[nH]c2cc([N+](=O)[O-])c(-n3cccc3)cc2c1=O`, `Cc1cc2c(-c3ccccc3)c(CN)n(C)c(=O)c2cc1C` is lower in melting point: 243 to 250 °C for the first, 163 to 165 °C for the second.

First: CCOC(=O)C1(C(=O)OCC)OC(=O)c2ncccc2C1(O)c1ccccc1 (centres undefined)
Second: O=C(Nc1ccc(C(=O)Oc2ccccc2)c(Cl)c1)NS(=O)(=O)c1ccccc1
The melting point of the first is lower: 146 to 147 °C for the first, 183 to 185 °C for the second.

Compared with `O=c1cc(-c2cc[nH]n2)oc2ccc(Cl)cc12`, `ON=c1cc(-c2cc3cccn3cn2)oc2ccc(OCCCOc3cccnc3)cc12` is lower in melting point: 217 to 219 °C for the first, 202 to 205 °C for the second.

First: C=C=COc1ccc2ccc(OC=C=C)cc2c1
Second: CC(C)(C)OC(=O)Nc1cc2cc(OCc3ccccc3)ccc2cc1OCc1ccccc1
The melting point of the first is lower: 80.5 to 83.5 °C for the first, 179 to 182 °C for the second.

First: Oc1ccc(CCNc2ncnc3c(F)ccc(F)c23)cc1
Second: OCC(O)CNc1nnc(-c2ccc(F)c(F)c2Nc2ccc(I)cc2F)o1 (centres undefined)
The melting point of the first is higher: 221 to 222 °C for the first, 157 to 159 °C for the second.

First: CC(C)(C)Nc1c(NCc2ccncc2)c(=O)c1=O
Second: CCOC(=O)CNC(=O)Nc1ccc(C#N)cc1
The melting point of the first is higher: 271 to 272 °C for the first, 140 to 144 °C for the second.

First: COc1cc(Br)c(-n2c(=O)[nH]c3c(-c4ccccc4C(F)(F)F)nc(C)nc32)c(OC)c1
Second: CCN(Cc1sc(-c2ccc(C(F)(F)F)cc2)nc1C)c1cc(C)c(OCC(=O)O)c(C)c1
The melting point of the first is higher: 255 to 256 °C for the first, 161 to 162 °C for the second.

Compared with `c1cc(-c2ccc(N3CCCN(c4ccc(-c5ccsc5)cn4)CC3)nc2)cs1`, `COC(=O)C1=C(C)NC(C)=C(C(=O)OCCN2CCN(c3ccc(F)cc3)CC2)C1c1cccc(Cl)c1` (centres undefined) is lower in melting point: 234 to 236 °C for the first, 44 to 49 °C for the second.

Compared with `N#CCC1(O)CCc2ccccc2C12CCCC2` (centres undefined), `CC(C)(C)c1cccc(C[C@@H](NC(=O)c2cccc3c2C=CCCC3)[C@@H](O)c2cccc(Cl)c2)c1` (racemic) is lower in melting point: 165 to 166 °C for the first, 104 to 105 °C for the second.

Compared with `OC(c1ccccc1)c1ccc2nc3ccc(C(O)c4ccccc4)cc3c(-c3ccccc3)c2c1` (centres undefined), `OP(O)C(C=Cc1ccccc1)NC(c1ccccc1)c1ccccc1` (centres undefined) is lower in melting point: greater than 280 °C for the first, 202 to 203 °C for the second.

First: C[C@@H](CS(=O)C(F)(F)C(F)F)[C@](O)(Cn1cncn1)c1ccc(Cl)cc1Cl (some centres undefined)
Second: Cn1c2cc(Cl)cc(Cl)c2c2cc(C(=O)O)sc21
The melting point of the first is lower: 153 to 155 °C for the first, 278 to 281 °C for the second.

First: O=C(c1ccccc1)c1cccnc1-c1nc(Nc2ccc(Cl)cc2)c2ccccc2n1
Second: CC(O)c1c(-c2ccc(F)cc2)cc2c3c1ccn3C(=O)CNC2 (centres undefined)
The melting point of the first is lower: 190 to 192 °C for the first, 220 to 222 °C for the second.

Compared with `OC1(c2cncnc2)CN2CCC1CC2` (centres undefined), `CNC(=O)N(O)C(C)C#Cc1ccc(C)cc1` (centres undefined) is higher in melting point: 126 to 127 °C for the first, 137 to 138 °C for the second.

`CCN1CSC(=Cc2cc(C(C)(C)C)c(O)c(C(C)(C)C)c2)C1=O` showed a melting point of 169 to 172 °C.

Reference: a melting point compilation (Tetko et al.; mined from patent text by program, amines drawn as free bases though some values may be those of a salt)
